The values below come from patent publication US12448394B2, “Heterocyclic pyrazole derivatives as type III receptor tyrosine kinase inhibitors” (DEVELOPMENT CENTER FOR BIOTECHNOLOGY, priority 2019, dated 2025).

Experiment [1] deals with T1, FLT3-D835Y mutant kinase (Homo sapiens, UniProt P36888, D835Y).
T1 construct: purchased SignalChem
T1 sequence (P36888 27-993 D835Y): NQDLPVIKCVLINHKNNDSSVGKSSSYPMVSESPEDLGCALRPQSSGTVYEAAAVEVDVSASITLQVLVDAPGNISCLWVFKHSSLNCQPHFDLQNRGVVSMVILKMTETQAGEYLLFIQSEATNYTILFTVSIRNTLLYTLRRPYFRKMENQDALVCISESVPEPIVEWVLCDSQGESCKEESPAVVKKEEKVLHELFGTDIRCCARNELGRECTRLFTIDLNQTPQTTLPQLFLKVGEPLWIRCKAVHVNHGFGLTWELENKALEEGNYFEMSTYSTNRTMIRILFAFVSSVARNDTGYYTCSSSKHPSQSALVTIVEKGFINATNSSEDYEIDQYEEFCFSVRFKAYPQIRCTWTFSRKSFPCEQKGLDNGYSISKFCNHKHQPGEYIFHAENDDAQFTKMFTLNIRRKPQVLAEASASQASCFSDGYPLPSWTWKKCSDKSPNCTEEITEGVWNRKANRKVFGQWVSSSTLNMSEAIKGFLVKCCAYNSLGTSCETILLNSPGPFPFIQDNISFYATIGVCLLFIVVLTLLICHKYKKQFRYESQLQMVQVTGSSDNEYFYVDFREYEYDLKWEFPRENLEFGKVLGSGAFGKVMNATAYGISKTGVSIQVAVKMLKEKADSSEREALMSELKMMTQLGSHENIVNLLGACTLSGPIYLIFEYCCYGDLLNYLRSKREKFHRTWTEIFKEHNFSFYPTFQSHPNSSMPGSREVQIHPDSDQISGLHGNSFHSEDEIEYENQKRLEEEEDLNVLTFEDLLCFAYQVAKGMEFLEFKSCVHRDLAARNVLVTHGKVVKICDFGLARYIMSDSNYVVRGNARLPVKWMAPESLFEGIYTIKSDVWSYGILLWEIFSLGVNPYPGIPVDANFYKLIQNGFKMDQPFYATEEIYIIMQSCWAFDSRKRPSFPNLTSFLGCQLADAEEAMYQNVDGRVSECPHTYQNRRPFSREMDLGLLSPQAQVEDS
In words: FLT3-D835Y mutant kinase assay (AlphaScreen). The note with it: read-out: Ranking of IC50 values, FLT3-D835Y. The experiment is classed as biochemical. As to the method: Inhibition of FLT3-D835Y mutant kinase activity by a test compound disclosed herein was estimated by AlphaScreen (PerkinElmer). Standard assay conditions were 1 ng of recombinant FLT3-D835Y mutant kinase (SignalChem) with 6 ng Biotin-conjugated Poly-(Glu 4: Tyr 1) (Cisbio) in the assay buffer (10 μM ATP, 10 mM MOPs, pH7.0, 0.21 mM EDTA, 0.5% glycerol, 1 mg/mL BSA, 0.01% 2-mercaptoethanol, 0.001% Brij35, 10 mM MgCl2) in a final volume of 25 μL. Reactions were incubated at 30° C. for 30 min and stopped by adding 5 μL of 50 mM EDTA. Analysis of resulting product using an AlphaScreen kit and counted with Enspire Alpha (PerkinElmer). […] The IC50 values of inhibitors were determined after carrying out assays with each compound at serially diluted concentrations in duplication. The results were analyzed using linear regression software (GraphPad Prism 5; GraphPad Software Inc.)

For experiment [2], the target named is T2, MET kinase (Homo sapiens, UniProt P08581).
T2 construct: purchased SignalChem
T2 sequence (P08581 25-1390): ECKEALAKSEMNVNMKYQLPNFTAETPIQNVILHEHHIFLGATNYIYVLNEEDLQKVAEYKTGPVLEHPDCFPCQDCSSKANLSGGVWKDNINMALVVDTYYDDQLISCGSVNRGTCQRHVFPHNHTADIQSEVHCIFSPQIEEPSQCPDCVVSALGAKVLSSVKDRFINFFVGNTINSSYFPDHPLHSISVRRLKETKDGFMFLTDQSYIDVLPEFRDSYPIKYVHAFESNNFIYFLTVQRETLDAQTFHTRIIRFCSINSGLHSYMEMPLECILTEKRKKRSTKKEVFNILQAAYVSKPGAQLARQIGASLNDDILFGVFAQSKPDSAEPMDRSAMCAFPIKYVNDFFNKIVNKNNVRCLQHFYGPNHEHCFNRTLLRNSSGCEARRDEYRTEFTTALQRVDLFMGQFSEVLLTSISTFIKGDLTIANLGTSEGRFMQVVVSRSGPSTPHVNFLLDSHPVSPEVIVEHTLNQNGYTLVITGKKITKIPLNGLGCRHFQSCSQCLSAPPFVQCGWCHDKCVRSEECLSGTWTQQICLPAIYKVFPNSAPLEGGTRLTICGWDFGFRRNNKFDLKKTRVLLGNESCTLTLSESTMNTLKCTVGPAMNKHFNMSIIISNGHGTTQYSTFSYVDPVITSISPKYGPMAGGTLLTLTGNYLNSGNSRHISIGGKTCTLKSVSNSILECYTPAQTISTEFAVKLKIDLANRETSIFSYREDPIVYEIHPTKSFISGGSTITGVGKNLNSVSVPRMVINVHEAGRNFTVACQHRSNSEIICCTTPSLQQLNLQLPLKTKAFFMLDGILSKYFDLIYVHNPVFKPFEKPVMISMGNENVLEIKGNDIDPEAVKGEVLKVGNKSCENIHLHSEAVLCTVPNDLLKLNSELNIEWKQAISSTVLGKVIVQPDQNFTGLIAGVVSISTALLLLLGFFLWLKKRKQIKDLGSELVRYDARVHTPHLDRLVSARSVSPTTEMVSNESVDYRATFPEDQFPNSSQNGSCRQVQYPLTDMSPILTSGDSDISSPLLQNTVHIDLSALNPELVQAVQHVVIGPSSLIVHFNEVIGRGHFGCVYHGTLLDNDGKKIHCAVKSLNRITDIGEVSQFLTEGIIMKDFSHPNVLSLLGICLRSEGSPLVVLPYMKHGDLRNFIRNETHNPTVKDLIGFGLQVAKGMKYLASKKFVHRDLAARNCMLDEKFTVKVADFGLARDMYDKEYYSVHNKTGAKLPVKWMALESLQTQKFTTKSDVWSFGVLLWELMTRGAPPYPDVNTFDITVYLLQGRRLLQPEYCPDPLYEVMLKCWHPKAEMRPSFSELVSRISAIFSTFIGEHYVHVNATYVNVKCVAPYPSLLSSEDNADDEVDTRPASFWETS
In words: MET kinase assay (AlphaScreen, counter screen). The experiment is classed as biochemical. The conditions noted are these: read-out: Ranking of IC50 values, MET. Here is the method:
Because MET kinase belonged to Class VIII RTK family have one transmembrane a chain linked with one extracellular β chain which is different form Class III RTK family with 5 Immunoglobin-like extracellular domains. Standard assay conditions were 1 ng of recombinant MET kinase (SignalChem) with 3 ng Biotin-conjugated Poly-(Glu 4: Tyr 1) (Cisbio) in the assay buffer ([…], 10 mM MOPs, pH 7.0, 0.21 mM EDTA, 0.5% glycerol, 1 mg/mL BSA, 0.01% 2-mercaptoethanol, 0.001% Brij35, 10 mM MgCl2) in a final volume of 25 μL. Reactions were incubated at 30° C. for 45 min and stopped by adding 5 μL of 50 mM EDTA. Analysis of resulting product using an AlphaScreen kit and counted with Enspire Alpha (PerkinElmer). […] The IC50 values of inhibitors were determined after carrying out assays with each compound at serially diluted concentrations in duplication. The results were analyzed using linear regression software (GraphPad Prism 5; GraphPad Software Inc.)

In experiment [3] the target is T3, PDGFRα kinase (Homo sapiens, UniProt P16234).
T3 construct: purchased SignalChem
T3 sequence (P16234 24-1089): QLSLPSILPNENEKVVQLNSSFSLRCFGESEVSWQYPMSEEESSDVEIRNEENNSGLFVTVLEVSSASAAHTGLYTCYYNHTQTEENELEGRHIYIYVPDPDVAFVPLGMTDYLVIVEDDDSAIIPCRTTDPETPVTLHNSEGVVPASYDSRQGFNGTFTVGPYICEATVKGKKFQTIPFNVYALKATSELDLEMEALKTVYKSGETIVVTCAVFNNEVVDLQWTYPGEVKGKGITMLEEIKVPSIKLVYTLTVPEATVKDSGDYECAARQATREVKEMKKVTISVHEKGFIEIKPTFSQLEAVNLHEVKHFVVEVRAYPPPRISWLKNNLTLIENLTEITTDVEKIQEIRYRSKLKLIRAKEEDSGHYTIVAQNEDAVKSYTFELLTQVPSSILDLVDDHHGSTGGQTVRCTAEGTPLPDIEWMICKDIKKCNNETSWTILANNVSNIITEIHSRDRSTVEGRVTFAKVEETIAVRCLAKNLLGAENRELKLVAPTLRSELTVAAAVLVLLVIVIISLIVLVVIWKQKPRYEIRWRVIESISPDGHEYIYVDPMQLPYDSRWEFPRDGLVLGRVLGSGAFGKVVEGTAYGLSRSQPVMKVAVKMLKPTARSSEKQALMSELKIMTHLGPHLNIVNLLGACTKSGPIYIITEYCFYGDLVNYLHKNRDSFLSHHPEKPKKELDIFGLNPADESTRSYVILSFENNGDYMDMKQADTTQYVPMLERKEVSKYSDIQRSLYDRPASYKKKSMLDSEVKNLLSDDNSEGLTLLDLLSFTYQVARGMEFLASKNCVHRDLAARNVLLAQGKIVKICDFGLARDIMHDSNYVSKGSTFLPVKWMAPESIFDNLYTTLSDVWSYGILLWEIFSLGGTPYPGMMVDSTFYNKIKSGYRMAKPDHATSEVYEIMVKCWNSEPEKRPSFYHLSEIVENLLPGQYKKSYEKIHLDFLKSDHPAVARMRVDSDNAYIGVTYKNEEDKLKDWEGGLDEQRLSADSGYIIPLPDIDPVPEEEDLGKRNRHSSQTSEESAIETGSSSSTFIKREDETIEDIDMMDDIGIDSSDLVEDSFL
The experiment can be described thus: PDGFRα kinase assay (AlphaScreen). The experiment is classed as biochemical. The conditions noted are these: read-out: Ranking of IC50 values, PDGFRα. As to the method: Inhibition of PDGFRα kinase activity by a test compound disclosed herein was estimated by AlphaScreen (PerkinElmer). Standard assay conditions were 1.5 ng of recombinant PDGFRα kinase (SignalChem) with 6 ng Biotin-conjugated Poly-(Glu 4: Tyr 1) (Cisbio) in the assay buffer (10 μM ATP, 10 mM MOPs, pH 7.0, 0.21 mM EDTA, 0.5% glycerol, 1 mg/mL BSA, 0.01% 2-mercaptoethanol, 0.001% Brij35, 10 mM MgCl2) in a final volume of 25 μL. Reactions were incubated at 30° C. for 30 min and stopped by adding […] of 50 mM EDTA. Analysis of resulting product using an AlphaScreen kit and counted with Enspire Alpha (PerkinElmer). […] The IC50 values of inhibitors were determined after carrying out assays with each compound at serially diluted concentrations in duplication. The results were analyzed using linear regression software (GraphPad Prism 5; GraphPad Software Inc.)

The target in experiment [4] is T4, FLT3 kinase (Homo sapiens, UniProt P36888).
T4 construct: purchased SignalChem
T4 sequence (P36888 27-993): T1 sequence (P36888 27-993 D835Y) with Y809D
The experiment can be described thus: FLT3 kinase assay (AlphaScreen). The experiment is classed as biochemical. The conditions noted are these: read-out: Ranking of IC50 values, FLT3. Here is the method:
Inhibition of FLT3 kinase activity by a test compound disclosed herein was estimated by AlphaScreen (PerkinElmer, […]). Standard assay conditions were 1.5 ng of recombinant FLT3 kinase (SignalChem, Richmond, BC, Canada) with 6 ng Biotin-conjugated Poly-(Glu 4: Tyr 1) (Cisbio, Bedford, MA, USA) in the assay buffer (10 μM ATP, 10 mM MOPs, pH7.0, 0.21 mM EDTA, 0.5% glycerol, 1 mg/mL BSA, 0.01% 2-mercaptoethanol, 0.001% Brij35, 10 mM MgCl2) in a final volume of 25 μL. Reactions were incubated at 30° C. for 30 min and stopped by adding 5 μL of 50 mM EDTA. Analysis of resulting product using an AlphaScreen kit and counted with Enspire Alpha (PerkinElmer, Waltham, MA, USA). […] The IC50 values of inhibitors were determined after carrying out assays with each compound at serially diluted concentrations in duplication. The results were analyzed using linear regression software (GraphPad Prism 5; GraphPad Software Inc.)

The subject of experiment [5] is experimental autoimmune encephalomyelitis (EAE). The conditions noted are these: mouse model for multiple sclerosis; cited from earlier work.

Residue numbers refer to the chain shown, from its start.

`Brc1n[nH]c2cc(-c3n[nH]c4c3Cc3sc(-c5ccc(CN6CCOCC6)cc5)cc3-4)ccc12` [Compound 68, 4-(4-(3-(3-bromo-1H-indazol-6-yl)-1,4-dihydro-thieno[2′,3′:4,5]cyclopenta [1,2-c]pyrazol-6-yl)benzyl)morpholine]: the IC50 is 1 to 10 nM in experiment [1], more than 1000 nM in experiment [2], 1 to 10 nM in experiment [3] and 1 to 10 nM in experiment [4].

For the compound `C[C@]12O[C@H](C[C@]1(O)CO)n1c3ccccc3c3c4c(c5c6ccccc6n2c5c31)CNC4=O` [CEP-701], the “reducing myelin loss in EAE” value in experiment [5] was “effective in reducing myelin loss”.
